Starred links: 1 amine or outer side, 2 acyl side, 3 side chain; linkers in the order of their positions; H or OH if unused. Positions of bridges follow the written chain, without caps; N, C: chain ends. Non-standard residues stand in square brackets, D forms with d. Residues, ends and D or L forms follow the SMILES beside them. *: point of attachment. Phe(3-NHCO(CH2)3SO2NH2) = N[C@@H](Cc1cccc(NC(=O)CCCS(N)(=O)=O)c1)C(=O)O; DOTA = O=C(O)CN1CCN(CC(=O)O)CCN(CC(=O)*)CCN(CC(=O)O)CC1; mXylylene = c1cc(C[*:1])cc(C[*:2])c1; X1 = O=C(CN1CCN([*:1])CC1)[*:2]
Experiment: Allometric prediction of human PK parameters from mouse and dog PK
Settings: allometry from mouse and dog
Protocol: From the variety of CL, Vd and T1/2 determined in the animal studies, the highest and lowest values for each species were retained, and allometry was conducted on all the combinations to obtain a range for each predicted human PK parameter.

CC(C)C[C@@H]1NC(=O)[C@H](Cc2cccc(NC(=O)CCCS(N)(=O)=O)c2)NC(=O)[C@H](CC(=O)O)NC(=O)[C@H]2CCCN2C(=O)[C@H](CCC(=O)O)NC(=O)[C@@H](NC(=O)[C@H](CCC(N)=O)NC(=O)CN2CCN(C(=O)CN3CCN(CC(=O)O)CCN(CC(=O)O)CCN(CC(=O)O)CC3)CC2)CSCc2cccc(c2)CSC[C@@H](C(N)=O)NC(=O)[C@H](CO)NC(=O)[C@H](Cc2c[nH]c3ccccc23)NC(=O)[C@H]([C@@H](C)O)NC1=O [DPI-4452, DOTA-PPAc-Gln-[Cys(3MeBn)-Glu-pro-Asp-Af3(Cpsu)-Leu-Thr-Trp-Ser-Cys]-NH2] ({DOTA}-[X1]QCE[dP]D[Phe(3-NHCO(CH2)3SO2NH2)]LTWSC-NH2; linker 3-12 via mXylylene)
Predicted human clearance (CL): 3.57 to 13.0 mL/min/kg
Predicted human terminal half-life (T1/2): 10.2 to 88.2 min
Predicted human volume of distribution (Vd): 0.189 to 0.455 L/kg
